This is an account of results in PubChem BioAssay (NCI).

Molecules are shown by their SMILES.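 Where inhibition never reached the appropriate level, the endpoint shown equals the highest concentration tested. Otherwise, values were interpolated linearly from a five-concentration, 48-hour dose response in 96-well plates. GI50 is the concentration that inhibits growth by half. Definition used: TGI = concentration required for complete inhibition of growth.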 Bounds are passed on as bounds.

Among the test systems are RPMI-8226 leukemia; SK-MEL-28 melanoma; SW-620 colon; NCI/ADR-RES ovarian; M14 melanoma; HL-60(TB) leukemia; NCI-H522 lung; K-562 leukemia; NCI-H23 lung; OVCAR-3 ovarian.
Experiment in all cases: NCI anticancer screen, dose series, 48 h

On to `C=CC(O)(CBr)CCC(Br)C(=C)C` (stereo not given), for which the TGI in the assay on RPMI-8226 leukemia, in the assay with SK-MEL-28 melanoma, in the assay on SW-620 colon, in the assay on NCI/ADR-RES ovarian, with M14 melanoma and in the assay on HL-60(TB) leukemia was more than 10 µM in each case. Moreover, the TGI in the assay on NCI-H522 lung, with K-562 leukemia, with NCI-H23 lung and in the assay on OVCAR-3 ovarian was more than 10 µM throughout.
Turning to `O=[N+]([O-])C(/C=C(\Cl)[N+](=O)[O-])=C1Nc2ccccc2N1`, the TGI in the assay on RPMI-8226 leukemia, with SK-MEL-28 melanoma, in the assay with SW-620 colon, in the assay on NCI/ADR-RES ovarian, in the assay on M14 melanoma and with HL-60(TB) leukemia was more than 100 µM each time. Further, the TGI in the assay with NCI-H522 lung, with K-562 leukemia, in the assay with NCI-H23 lung and in the assay on OVCAR-3 ovarian was more than 100 µM in each case.
As for `COc1ccccc1Cc1ccc(C2C=CC3(CC(=O)C=C3C)C(=O)C2)o1` (stereo not given), the TGI was 39.2 µM in the assay on RPMI-8226 leukemia; more than 100 µM in the assay on SK-MEL-28 melanoma; 40.7 µM with SW-620 colon; more than 100 µM in the assay with NCI/ADR-RES ovarian; more than 100 µM in the assay with M14 melanoma; 41.7 µM with HL-60(TB) leukemia. Besides, the TGI in the assay on NCI-H522 lung worked out at 37.4 µM; in the assay on K-562 leukemia it was 50.1 µM; in the assay with NCI-H23 lung, 58.3 µM; in the assay with OVCAR-3 ovarian, 23.5 µM.
For the compound `CCCCn1c(CSc2ccc(Cl)cc2)c(C(=O)OCC)c2cc(OC)c(Br)cc21`, the TGI with RPMI-8226 leukemia, in the assay with SK-MEL-28 melanoma, in the assay on SW-620 colon, with NCI/ADR-RES ovarian, in the assay on M14 melanoma and in the assay on HL-60(TB) leukemia was more than 100 µM throughout. In addition, the TGI in the assay with NCI-H522 lung, with K-562 leukemia, with NCI-H23 lung and in the assay on OVCAR-3 ovarian was more than 100 µM each time.
For the compound `COc1ccc(/C=C/C(=O)/C=C/c2ccc(OC)cc2OC)c(OC)c1`, the TGI was found to be 18.6 µM in the assay with RPMI-8226 leukemia; 22.5 µM in the assay on SK-MEL-28 melanoma; 83.6 µM with SW-620 colon; 91.4 µM in the assay with NCI/ADR-RES ovarian; 36.2 µM with M14 melanoma; 13.9 µM in the assay with HL-60(TB) leukemia. Further, the TGI amounted to 8.7 µM with NCI-H522 lung, 8.4 µM in the assay with K-562 leukemia, 43 µM in the assay on NCI-H23 lung and 7.37 µM in the assay with OVCAR-3 ovarian.
With `COc1cc(C)c(/C=C2/N=C(c3ccccc3)OC2=O)c([N+](=O)[O-])c1OC`, the TGI in the assay on RPMI-8226 leukemia, in the assay with SK-MEL-28 melanoma, in the assay with SW-620 colon, in the assay on NCI/ADR-RES ovarian, with M14 melanoma and with HL-60(TB) leukemia was more than 100 µM throughout. Further, the TGI with NCI-H522 lung, in the assay with K-562 leukemia, in the assay with NCI-H23 lung and in the assay with OVCAR-3 ovarian was more than 100 µM throughout.
As to `CC(=O)c1[nH]c(NC(C)C)c(C(=S)Nc2ccccc2)c1N`, the TGI in the assay with RPMI-8226 leukemia was 27.9 µM; in the assay with SK-MEL-28 melanoma, 87.7 µM; with SW-620 colon, more than 100 µM; in the assay with NCI/ADR-RES ovarian it was more than 100 µM; in the assay with M14 melanoma it was 39.7 µM; with HL-60(TB) leukemia, more than 100 µM. Moreover, the TGI in the assay on NCI-H522 lung was 31.7 µM; in the assay on K-562 leukemia, more than 100 µM; with NCI-H23 lung it was more than 100 µM; in the assay with OVCAR-3 ovarian, more than 100 µM.
As for `COC(=O)c1c(C(=O)OC)c2ccccn2c1-c1cc(OC)c(Br)c(=O)o1`, the TGI in the assay with RPMI-8226 leukemia, in the assay on SK-MEL-28 melanoma, in the assay on SW-620 colon, with NCI/ADR-RES ovarian, in the assay with M14 melanoma and in the assay on HL-60(TB) leukemia was more than 100 µM each time. The TGI with NCI-H522 lung, in the assay on K-562 leukemia, with NCI-H23 lung and with OVCAR-3 ovarian was more than 100 µM each time.
Take `N#CC1(C#N)NC(c2ccccc2)C(C#N)(C#N)NC1c1ccccc1` (stereo not given): the TGI in the assay on RPMI-8226 leukemia, in the assay with SK-MEL-28 melanoma, in the assay on SW-620 colon, in the assay on NCI/ADR-RES ovarian, in the assay on M14 melanoma and in the assay on HL-60(TB) leukemia was more than 100 µM each time. In addition, the TGI in the assay with NCI-H522 lung, in the assay with K-562 leukemia, in the assay on NCI-H23 lung and in the assay on OVCAR-3 ovarian was more than 100 µM each time.
`COc1cc2c(c(OC)c1OC)C(=O)[C@@H]1[C@H]2N1C(=O)NCCCl`: the TGI with RPMI-8226 leukemia, with SK-MEL-28 melanoma, in the assay on SW-620 colon, with NCI/ADR-RES ovarian, in the assay on M14 melanoma and in the assay with HL-60(TB) leukemia was more than 100 µM in each case. The TGI in the assay with NCI-H522 lung, with K-562 leukemia, in the assay on NCI-H23 lung and in the assay on OVCAR-3 ovarian was more than 100 µM throughout.
Take `CC1CN=C(NS(=O)(=O)c2cc(C(=O)Nc3ccc(Cl)cc3)c(Cl)cc2S)NN1` (stereo not given): the TGI in the assay on RPMI-8226 leukemia is 70.8 µM; in the assay on SK-MEL-28 melanoma, 83.9 µM; in the assay with SW-620 colon, more than 100 µM; with NCI/ADR-RES ovarian, more than 100 µM; with M14 melanoma, 69.5 µM; in the assay with HL-60(TB) leukemia, more than 100 µM. Besides, the TGI was 64.1 µM with NCI-H522 lung, more than 100 µM with K-562 leukemia, more than 100 µM with NCI-H23 lung and more than 100 µM with OVCAR-3 ovarian.
`CC(O)C1(CNc2cc(Cl)nc(N)n2)CCCCC1` (stereo not given): the TGI in the assay with RPMI-8226 leukemia, with SK-MEL-28 melanoma, with SW-620 colon, in the assay with NCI/ADR-RES ovarian, in the assay with M14 melanoma and with HL-60(TB) leukemia was more than 100 µM in each case. Also, the TGI with NCI-H522 lung, with K-562 leukemia, in the assay with NCI-H23 lung and with OVCAR-3 ovarian was more than 100 µM throughout.
Consider `CC(Oc1ccccc1Cl)C(=O)NN1C(=O)CC(=O)N(c2ccccc2)C1=S` (stereo not given), for which the TGI is more than 100 µM in the assay on RPMI-8226 leukemia; more than 100 µM in the assay with SK-MEL-28 melanoma; more than 100 µM in the assay with SW-620 colon; more than 100 µM in the assay with NCI/ADR-RES ovarian; more than 100 µM in the assay with M14 melanoma; 59.7 µM in the assay on HL-60(TB) leukemia. Besides, the TGI in the assay with NCI-H522 lung, with K-562 leukemia, with NCI-H23 lung and in the assay on OVCAR-3 ovarian was more than 100 µM in each case.
Consider `O=C(Cc1ccccc1F)NC1=C(Cl)C(=O)c2ccccc2C1=O`, for which the TGI in the assay with RPMI-8226 leukemia stood at 19.1 µM; with SK-MEL-28 melanoma it was 9.6 µM; in the assay on SW-620 colon it was 3.81 µM; in the assay with NCI/ADR-RES ovarian, 6.25 µM; in the assay with M14 melanoma, 7.41 µM; in the assay with HL-60(TB) leukemia, 0.8 µM. Further, the TGI with NCI-H522 lung was 0.565 µM; in the assay on K-562 leukemia, more than 41.8 µM; in the assay with NCI-H23 lung it was 3.87 µM; in the assay on OVCAR-3 ovarian, 2.9 µM.
For the compound `CC1(C)[C@@H]2C[C@H]1[C@@H](Cc1cccc(C[C@H]3c4cc(-c5ccccn5)ncc4[C@H]4C[C@@H]3C4(C)C)c1)c1cc(-c3ccccn3)ncc12`, the TGI is more than 26.4 µM with RPMI-8226 leukemia; more than 100 µM in the assay on SK-MEL-28 melanoma; more than 61.4 µM in the assay with SW-620 colon; 40.3 µM in the assay on NCI/ADR-RES ovarian; more than 100 µM in the assay on M14 melanoma; 4.33 µM with HL-60(TB) leukemia. For the same compound, the TGI in the assay on NCI-H522 lung is more than 70.8 µM; in the assay on K-562 leukemia, more than 49.1 µM; with NCI-H23 lung, more than 77.4 µM; in the assay on OVCAR-3 ovarian, more than 100 µM.
As to `C1CSCCSCCCSC2CCCCC2SC1` (stereo not given), the TGI was more than 100 µM in the assay with RPMI-8226 leukemia; more than 100 µM with SK-MEL-28 melanoma; more than 100 µM with SW-620 colon; more than 100 µM in the assay on NCI/ADR-RES ovarian; more than 100 µM with M14 melanoma; 95.3 µM with HL-60(TB) leukemia. Further, the TGI in the assay with NCI-H522 lung, in the assay with K-562 leukemia, in the assay on NCI-H23 lung and in the assay on OVCAR-3 ovarian was more than 100 µM throughout.
On to `COc1ccc2c3c(Nc4cccc(/C(C)=N\O)c4)[nH]c4ccccc4c-3c(N=O)c2c1`, for which the GI50 was 25.5 µM in the assay with RPMI-8226 leukemia; 12.7 µM in the assay with SK-MEL-28 melanoma; 32.1 µM in the assay on SW-620 colon; 21.2 µM with NCI/ADR-RES ovarian; 29.9 µM in the assay on M14 melanoma; 16.9 µM in the assay on HL-60(TB) leukemia. Also, the GI50 with NCI-H522 lung was 46.2 µM; with K-562 leukemia, 31.6 µM; in the assay with NCI-H23 lung, 752 nM; with OVCAR-3 ovarian, 33.2 µM. Also, the TGI was more than 100 µM in the assay with RPMI-8226 leukemia; 42.7 µM in the assay on SK-MEL-28 melanoma; more than 100 µM in the assay on SW-620 colon; 96.9 µM in the assay with NCI/ADR-RES ovarian; more than 100 µM in the assay on M14 melanoma; more than 100 µM in the assay on HL-60(TB) leukemia. For the same compound, the TGI is more than 100 µM with NCI-H522 lung, more than 100 µM in the assay on K-562 leukemia, 27.1 µM with NCI-H23 lung and 88.2 µM with OVCAR-3 ovarian.
On to `COc1ccc([N+](=O)[O-])c2c(NCCCN(C)C)ccnc12`, for which the TGI with RPMI-8226 leukemia is 6.53 µM; in the assay with SK-MEL-28 melanoma it was more than 100 µM; with SW-620 colon, 32.4 µM; with NCI/ADR-RES ovarian, 42.2 µM; with M14 melanoma it was 20.8 µM; with HL-60(TB) leukemia it was 22.8 µM. For the same compound, the TGI is 3.34 µM in the assay with NCI-H522 lung, 5.73 µM in the assay with K-562 leukemia, 6.19 µM in the assay with NCI-H23 lung and 6.78 µM in the assay with OVCAR-3 ovarian.
With `O=c1c2ccccc2[nH]n1Cc1ccccc1`, the TGI in the assay on RPMI-8226 leukemia, with SK-MEL-28 melanoma, with SW-620 colon, in the assay on NCI/ADR-RES ovarian, with M14 melanoma and in the assay on HL-60(TB) leukemia was more than 100 µM each time. For the same compound, the TGI in the assay with NCI-H522 lung, in the assay with K-562 leukemia, in the assay with NCI-H23 lung and with OVCAR-3 ovarian was more than 100 µM throughout.
Consider `COC1CCON1C(=O)c1ccccc1` (stereo not given), for which the TGI in the assay on RPMI-8226 leukemia, in the assay on SK-MEL-28 melanoma, in the assay with SW-620 colon, in the assay with NCI/ADR-RES ovarian, in the assay with M14 melanoma and in the assay with HL-60(TB) leukemia was more than 10 µM throughout. The TGI with NCI-H522 lung, in the assay with K-562 leukemia, in the assay with NCI-H23 lung and in the assay on OVCAR-3 ovarian was more than 10 µM in each case.
